Patent US5958770A, “Glycoalkaloids” (priority 1990, dated 1999)
Entries after “also recorded” stand apart in the source; their conditions may differ. Read-outs that look alike come from different tables or passages of the source.

Columns and labels:
[1] = test system: fibroblasts; assay: Solamargine cytotoxicity in presence and absence of carbohydrates, fibroblasts; format: cell-based, human; details: Homo sapiens, Fibroblast, Fb, solamargine 3.1 μM/L, read-out: Percentage Survival
Method: (§1) A mixture of solasodine glycosides (BEC), of which the active compound is solamargine and from which the aglycone solasodine is derived was prepared for use in cytotoxicity assays as determined by the uptake of tritiated thymidine. Inhibition studies were carried out with lactose, lactosyl-albumin, galactose or rhamnose (Sigma Chemical Co., USA). All experimental replicates were related to their own controls. Total volume of replicates was 250 μl (carbohydrates added in 50 μl tissue culture media+10% fetal calf serum), and the cell concentrations were 8×10^4 /ml.

[2] = test system: ovarian cancer cells; assay: Morphological examination of ovarian cancer cells (Papanicolaou); format: cell-based, human; details: 17 hours; FIG. 4B
Method: Appropriate DMSO cytotoxicity studies were also conducted.
A human ovarian cancer cell line (C180-135) was grown as mono layers and trypsinized to form a cell suspension. The cells were adjusted to a concentration of 1×10^5 /ml (viability ≥95%) and 200 μl placed in each of the eight chambers of microscope chamber slides (Lab Tek, Miles Scientific). After 21 hours preincubation at 37.5° C., 50 μl of supplemented tissue culture media were added to the control chambers. To the other chambers were added 50 μl of solasodine glycosides (BEC) to give final concentrations of 3, 4.8, 6.7, 7.7, 9.6, 11.1 and 15.3 μM/L. Similarly, to a separate chamber slide was added the aglycone solasodine (19.4-96.8 μM/L). The slides were incubated at 37.5° C. for a further 3 hours, and the cells fixed in 95% V/V alcohol and stained by the Papanicolaou method. Two other chamber slides were prepared in a similar manner, but the solasodine glycosides and the aglycone were added at a final concentration of 0.77, 1.5, 2.3, 3.1 and 3.8 μM/L after 7 hours preincubation, and they incubated for a further 17 hours.

[3] = test system: Con A stimulated lymphocytes; assay: Inhibition of tritiated thymidine uptake, Con A stimulated lymphocytes; details: Con A stimulated lymphocytes
Method: (§5) This was cultured for 48 hours and pulsed with tritiated thymidine for a further 24 hours. In the inhibition studies, the cell concentration was 8×10^5 /ml.
(§6) All cells were harvested by vacuum filtration by washing in 250 μl of each of phosphate buffered saline, 5% trichloroacetic acid, 1.0M NaCl and 95% ethanol and subjected to β-scintillatian counting. Similarly, peripheral human blood lymphocytes were isolated and cultured 2×10^5 lymphocytes in CO2 1640TCM 10% HIFCS. Lymphocytes were stimulated with 20 μg/ml PHA, Con A or PWM, and cultured for 48 hrs followed by a 24 hr pulse. […] Cell concentrations were 8×10^4 /well total volume 250 μl. The dpm of the experimental replicates were expressed as a percentage of the mean value of the controls, and the mean value of the experimental replicates calculated.

[4] = test system: ovarian cancer cells, HeLa cells, lymphoblastoid cells, fibroblasts; assay: Cytotoxicity / inhibition of tritiated thymidine uptake, cell types taken together
Method: (§2) The inhibition of cell replication by steroid alkaloids is determined by the inhibition of the incorporation of ^3 H thymidine into DNA. Using this technique, it should be possible to monitor any preferential inhibition of uptake of ^3 H thymidine by cancer cells.
(§3) Cells were maintained as monolayers in RPM1-1640 tissue culture media (Grant Island Biological Co) buffered with N-2-hydroxy-ethylpiperazine-N-2-ethanesulphonic acid pH 7.5 and supplemented with 10% heat inactivated fetal calf serum (FCS): (i) a human ovarian cancer cell line (C180-135), (ii) HeLa cells, (iii) human fibroblasts, and (iv) as a cell suspension of lymphoblastoid cells (EBV transformed lymphocytes). Monolayers were trypsinized to form a cell suspension. […] Cell concentration was adjusted to 2×10^5 cells/ml, and 2×10^4 cells were added in replicates of 10 to the wells (1×10^5 /ml well) of HA microtitre plates (Millipore Corp., USA). The cells were preincubated at 37.5° C. for 7 hours prior to the addition of 50 μl of the cytotoxic drug followed by the addition of 50 μl 5 uCi/ml of ^3 H thymidine, in the same tissue culture media 21 hours later. Incubation was continued for a total of 24 hours, which includes the pre-incubation time.
(§4) Appropriate DMSO cytotoxicity studies were also conducted. Solasodine glycosides were supplied as a mixture (BEC), and as separate components, solamargine, solasonine, a mixture of di- and mono-glycosides and the aglycone solasodine. All cytotoxic drugs were further diluted with HIFCS/TCM before testing. 5×10^4 ovarian cancer cells (200 μl/chamber of a chamber of microscope slide (Lab Tek Miles Scientific) were used. Controls received 50 μl HIFCS/TCM and experimental chambers 50 μl of solasodine glycosides (BEC) 1.5-3.8 μM/L after 7 hrs preincubation, and incubated for a further 3 hrs. Similarly, the cells were treated with the aglycone solasodine 19.4-96.8 μM/L. The cells were fixed and examined by the Papanicolaou method.

[5] = test system: ovarian cancer cells; assay: Solamargine cytotoxicity in presence and absence of carbohydrates, ovarian cancer cells; format: cell-based, human; details: Homo sapiens, OvCa, solamargine 1.54 μM/L, read-out: Percentage Survival
Method: as §1

[6] = test system: human spermatozoa; assay: Immobilization of spermatozoa; format: cell-based; details: for effect on spermatozoa (words): solamargine/eosin, FIG. 5
Method: In order to observe any immobilization of spermatozoa, sperm (10×10^6 /ml) (50 μl) were placed on a microscope slide separated from 50 μl of solamargine (1 mg/ml) by 5 μl of eosin. A cover slip was then placed over the slide. […] This is a standard method known in the art. It was noted that sperm was not present on the side of the slide where the drop of solasodine glycosides was placed.

[7] = test system: HeLa cells; assay: Solamargine cytotoxicity in presence and absence of carbohydrates, HeLa cells; format: cell-based, human; details: Homo sapiens, HeLa, solamargine 2.4 μM/L, read-out: Percentage Survival
Method: as §1

[8] = test system: unstimulated lymphocytes; assay: Inhibition of tritiated thymidine uptake, unstimulated lymphocytes; details: unstimulated lymphocytes
Method: as §5, §6

[9] = test system: PHA stimulated lymphocytes; assay: Inhibition of tritiated thymidine uptake, PHA stimulated lymphocytes; details: PHA stimulated lymphocytes
Method: as §5, §6

[10] = in vitro; details: human, pha stimulated lymphocytes
Method: as §5, §6

[11] = in vitro; details: human, unstimulated lymphocytes
Method: as §5, §6

[12] = test system: PWM stimulated lymphocytes; assay: Inhibition of tritiated thymidine uptake, PWM stimulated lymphocytes; details: PWM stimulated lymphocytes
Method: as §5, §6

[13] = in vitro; details: human, con a stimulated lymphocytes
Method: as §5, §6

[14] = test system: ovarian cancer cells; assay: Inhibition of tritiated thymidine uptake, ovarian cancer cells
Method: as §2, §3, §4

[15] = in vitro; details: human, pwm stimulated lymphocytes
Method: as §5, §6

Structure (SMILES): C[C@@H]1CC[C@@]2(NC1)O[C@H]1C[C@H]3[C@@H]4CC=C5C[C@@H](O[C@@H]6O[C@H](CO)[C@@H](O[C@@H]7O[C@@H](C)[C@H](O)[C@@H](O)[C@H]7O)[C@H](O)[C@H]6O[C@@H]6O[C@@H](C)[C@H](O)[C@@H](O)[C@H]6O)CC[C@]5(C)[C@H]4CC[C@]3(C)[C@H]1[C@@H]2C [Solamargine, solamargine]
- viability at 3.1 µM ([1]; 1.1 μM/L galactose, *** p < 0.001): 101%
- viability at 3.1 µM ([1]; 1.1 μM/L lactose, *** p < 0.001): 100%
- viability at 3.1 µM ([1]; 1.1 μM/L rhamnose, *** p < 0.001): 87%
- viability at 3.1 µM ([1]; no carbohydrate): 58 ± 9.6%
- morphological effect on ovarian cancer cells [2]: absence of cancer cells upon cytological examination
- cytotoxicity (words) [3]: limited effect; also recorded: limited cytotoxicity
- preferential cytotoxicity for cancer cells ([4]; cancer cells relative to other cell types): preferentially inhibits the uptake of tritiated thymidine by cancer cells
- LD50 for ovarian cancer cell line and HeLa cells less than that for lymphoblastoid cells and fibroblasts ([4]; fold lower): 1.5-3.3 times
- viability at 1.54 µM ([5]; 1.1 μM/L galactose, ** p = 0.001): 79%
- viability at 1.54 µM ([5]; 1.1 μM/L lactose, * p < 0.02 > 0.01): 75%
- viability at 1.54 µM ([5]; 1.1 μM/L rhamnose): 67 ± 7.5%
- viability at 1.54 µM ([5]; no carbohydrate): 62 ± 7%
- time to immobilization of sperm ([6]; solamargine 1 mg/ml): ≤ 15 s
- effect on spermatozoa (words) [6]: inhibit human spermatozoal motility
- effect on spermatozoa (words) ([6]; listed as solamargine): dead intact spermatozoa
- viability at 2.4 µM ([7]; 1.1 μM/L galactose): 24 ± 2.2%
- viability at 2.4 µM ([7]; 1.1 μM/L lactose): 24 ± 2.9%
- viability at 2.4 µM ([7]; 1.1 μM/L rhamnose): 26 ± 2.1%
- viability at 2.4 µM ([7]; no carbohydrate (first line)): 25 ± 2.6%
- viability at 2.4 µM ([7]; no carbohydrate (second line, with rhamnose)): 24 ± 4%
- cytotoxicity (words) [8]: limited effect; also recorded: limited cytotoxicity
- cytotoxicity (words) [9]: absence of cytotoxicity
- viability at 11.5 µM [10]: 93 ± 4.4%
- viability at 11.5 µM [11]: 76 ± 9.6%
- cytotoxicity (words) [12]: absence of cytotoxicity
- viability at 11.5 µM [13]: 79 ± 4%
- IC50 ([14]; Homo sapiens, read-out: LD50 (dose to inhibit 50% tritiated thymidine uptake)): 1550 nM
- viability at 11.5 µM ([14]; Homo sapiens, read-out: Percentage Cell Survival): 7 ± 0.8%
- LD50 of solamargine less than that of vinblastine, chlorambucil or cis-platinum ([14]; ovarian cancer cells, fold lower): 6-40 times
- viability at 11.5 µM [15]: 93 ± 9.4%
